For orientation: GI50 means the concentration giving 50% growth inhibition.

One data set concerns BJ. The experiment in a line: GI 50 determination, BJ. Conditions: Homo sapiens; BJ normal cell line. It is filed as cell-based. How it is done:
(§1) Cells of each type listed in Table 2 were seeded in chamber slides.

In another data set the test system is H2087. The experiment in a line: GI 50 determination, H2087. It is filed as cell-based. Conditions: Homo sapiens, NCI-H2087. How it is done:
as §1

A further data set relates to HCT116 cells. How it is done: Following the treatment cells were seeded at different densities and the cultured for 10 days.
The conditions of data set [1]: mouse, in vivo, 5 mg/kg. The procedure:
Six WT mice were treated with 1.67 mg of 6-thio-dG/kg of body weight daily. Six WT mice were treated with 1.67 mg of 6-thio-G/kg of body weight daily. Six WT mice were treated with 5 mg of 6-thio-dG/kg of body weight daily. Six WT mice were treated with 5 mg of 6-thio-G/kg of body weight daily. The mice were given the appropriate dosage and weighed daily for 25 days.

With `Nc1nc2c(ncn2[C@H]2C[C@H](O)[C@@H](CO)O2)c(=S)[nH]1` [6-thio-dG, 6-thio-2′-deoxyguanosine], the 50% growth inhibitory concentration (GI50) with BJ is > 100000 nM; with H2087 it was 900 nM. Further, the survival fraction result in the data set on HCT116 cells (3 μM, after 72 hours irradiated, cultured 10 days) is listed as “lower than cells treated with 6-thio-G”. Besides, the cell viability result with HCT116 cells (cell titer glow luminescent assay) was “lower than cells treated with 6-thio-G”. In addition, the weight loss result in data set [1] is on record as “only modest weight loss”.

For the origin of these results see US12070472B2, “Treatment of drug resistant proliferative diseases with telomerase mediated telomere altering compounds” (The Board of Regents of the University of Texas System, priority 2016, dated 2024).
